The numbers were not newly measured in patent US20210154161A1, “MODIFIED-RELEASE BUCILLAMINE COMPOSITIONS, KITS, AND METHODS FOR TREATING CYSTINURIA, ARTHRITIS, GOUT, AND RELATED DISORDERS” (ALTIBIO, INC., priority 2017, published 2021), which cites them from elsewhere.

For series [1] the following is noted: cited from earlier work.
The conditions of series [2]: cited from earlier work. This is another data set of the same source.
For series [3] the following is noted: cystinuria patients; cited from earlier work.
The conditions of series [4]: cited from earlier work. This is another data set of the same source.

As to `CC(S)C(=O)NCC(=O)O` (stereo not drawn) [tiopronin, alpha-mercaptopropionylglycine], the “time of primary urine excretion wave after oral administration” value in series [1] (immediate-release tiopronin, oral) is 3 to 4 h. In addition, the “time after administration at which urine excretion of free tiopronin and mixed-sulfide tiopronin mostly occurs” value in series [1] (in vivo) is 2 to 4 h. In addition, in series [1] (within 2 hours of Thiola administration), the “free tiopronin excreted in urine within 2 hours of administration” value was at most 95%. The “cases/patients in which the drug is discontinued” value in series [2] (due to adverse reactions, need for frequent dosing, poor efficacy) is recorded as “about 30%”. In series [2] (human, in vivo), the “cystinuria patients failed by the medication (continue forming stones)” value is recorded as 85%; the “patients who achieve and maintain therapeutic success” value is 15%; the “period of effectiveness in reducing cystine urine levels” value was 2 to 4 h.

`CC(C)(S)[C@@H](N)C(=O)O` [D-penicillamine]: the “patients with severe side effects / who cannot tolerate the drug” value in series [3] was 50-70%. In addition, in series [4], the “solubility of the di-sulfide complex formed, relative to cystine” value is reported as 50 times.
